Assay results as given in patent US9950026B2, “Methods for reducing oxidative damage” (Cornell Research Foundation, Inc., priority 2004, dated 2018).
Where a SMILES comes first, the peptide text is derived from it. [ ]: non-standard residue; d: D form. Dmt = Cc1cc(O)cc(C)c1C[C@H](N)C(=O)O

How the values were obtained:
Caco-2 = test: Cellular uptake of [3H][Dmt1]DALDA; type: in vitro ADME, human; settings: estimated
Protocol: The cellular uptake of [^3H][Dmt^1]DALDA was studied using a human intestinal epithelial cell line (Caco-2), and confirmed with SH-SY5Y (human neuroblastoma cell), HEK293 (human embryonic kidney cell) and CRFK cells (kidney epithelial cell). Monolayers of cells were grown on 12-well plates (5×10^5 cells/well) coated with collagen for 3 days. On day 4, cells were washed twice with pre-warmed HBSS, and then incubated with 0.2 ml of HBSS containing either 250 nM [^3H][Dmt^1]DALDA at 37° C. […] 4° C. for various times up to 1 h.
In a separate experiment, cells were incubated with a range of [Dmt^1]DALDA concentrations (1 μM-3 mM) for 1 h at 37° C. At the end of the incubation period, cells were washed 4 times with HBSS, and 0.2 ml of 0.1N NaOH with 1% SDS was added to each well. The cell contents were then transferred to scintillation vials and radioactivity counted. To distinguish between internalized radioactivity from surface-associated radioactivity, an acid-wash step was included. Prior to cell lysis, cells were incubated with 0.2 ml of 0.2 M acetic acid/0.05 M NaCl for 5 min on ice.

[1] = test system: isolated mouse liver mitochondria; test: H2O2 production by isolated mitochondria, luminol chemiluminescence; type: biochemical
[2] = test system: Mouse pancreatic islet cells; test: tBHP oxidative damage in islet cells (TMRM, DCF); type: cell-based; settings: 25 μM tBHP, 1 nM SS-31
Protocol: Mouse pancreatic islet cells were untreated (a), or treated with 25 μM tBHP without or with 1 nM SS-31 (c). Mitochondrial potential was measured by TMRM (red) and reactive oxygen species were measured by DCF (green) using confocal microscopy.

[3] = test system: islet cells isolated from mouse pancreas; test: Islet isolation with SS-31 in isolation buffers (TMRM; annexin V/PI flow cytometry); type: cell-based; settings: SS-31 1 nM in all isolation buffers
Protocol: Pancreas was harvested from mice and islet cells were prepared according standard procedures. In some studies, SS-31 (1 nM) was added to all isolation buffers used throughout the isolation procedure. Mitochondrial potential was measured using TMRM (red) and visualized by confocal microscopy.
Pancreas was harvested from mice and islet cells were prepared according standard procedures. In some studies, SS-31 (1 nM) was added to all isolation buffers used throughout the isolation procedure. Apoptosis was ascertained by flow cytometry using annexin V and necrosis by propidium iodide.

DBA/2 islet cells = test: Islet cell uptake of [3H]SS-31; type: in vitro ADME, mouse
Protocol: FIG. 33A-33B. SS peptides penetrate islet cells, co-localize with mitochondria and preserve islet mitochondrial membrane potential. (A) Islet cell uptake of SS-31. DBA/2 islet cells were incubated with 1 nM of tritium labeled SS-31 and 1 μM unlabeled SS-31 at 37° C. for 1 h. Following incubation, radioactivity was measured in the medium and in cell lysates and the radioactive counts in the medium were subtracted from radioactive counts in the cell lysate and normalized to protein content. In four consecutive experiments, the mean±(SE) [^3H]SS-31 uptake was 70.2+/31 10.3 pmol/mg, of proteins (B)(i-iv) SS-31 preserves islet mitochondrial potential. DBA/2 mice were treated with SS-31 (3 mg/kg s.c. BID) or vehicle control 24 hours prior to pancreas harvest for islet isolation. SS-31 treated groups had 1 nM SS-31 added to the islet isolation reagents. Following isolation, TMRM uptake was evaluated using confocal laser scanning microscopy.
Islets are tightly adherent cell clusters and entry of peptides/proteins may be impaired given their architecture.

N2A cells = test: Nuclear condensation (Hoechst) after tBHP; type: cell-based, murine; settings: 50 μM tBHP, 12 h
Protocol: (§1) FIG. 20A-20C. […] (A)(a-c; a′-c′) N2A cells were treated with 50 μM tBHP alone or with SS-31 for 12 h. Cells were stained with Hoechst 33342 for 20 min., fixed, and imaged by fluorescent microscopy. (a) Untreated cells show uniformly stained nuclei (a′). […] (c) Cells treated with tBHP and 1 nM SS-31 had less nuclear changes (c′). […] Apoptotic cells were counted using MetaMorph software. *P<0.01 compared to untreated cells; *P<0.01 compared to tBHP alone. […] SH-SY5Y cells were treated with 25 μM tBHP for 24 h. *P<0.01 compared to untreated cells; *P<0.01 compared to tBHP alone.
The morphological appearance of cells treated with tBHP was also consistent with apoptosis. N2A cells incubated with 50 μM tBHP for 12 h became rounded and shrunken (FIG. 20A, panel b). […] These nuclear changes were abolished by concurrent treatment with 1 nM SS-31 (FIG. 20A, panel c′).

[4] = test system: G93A transgenic familial ALS mice; test: Motor performance by rotarod in ALS mice; type: in vivo; settings: between day 100 and 130
[5] = test system: C57BL/6 mice subjected to MCAO; test: Infarct size, swelling and cerebral blood flow after MCAO; type: in vivo; settings: for reduction in infarct volume: 2 mg/kg i.p., 3 days after ischemia
Protocol: FIG. 32A-32F. Effect of SS-31 peptide on ischemia-induced infarct size and swelling in C57BL/6 mice. Shown are representative serial sections (1.2 mm apart) stained with Cresyl Violet from mice subjected to 30 min (A) and 20 min (B) MCAO and treated with vehicle (Veh) or SS-31 (2 mg/kg body weight) immediately after reperfusion, 6 h, 24 h, and 48 h.
To address whether SS-31-induced attenuation in GSH depletion is associated with neuroprotection, mice were subjected to 30 or 20 min MCAO and then treated with vehicle or SS-31 (2 mg/kg, i.p.) upon reperfusion) and at 6 h, 24 h, 48 h after MCAO. Infarct volumes and hemispheric swelling were determined at 3 days after ischemia.

SH-SY5Y cells = test: Apoptosis by nuclear morphology (Hoechst 33342) after tBHP; type: cell-based, human
Protocol: as §1
SH-SY5Y cells were grown on 96-well plates, treated with t-BHP (0.025 mM) in the absence or presence of SS-31 (10^−12M-10^−9M) at 37° C. for 24 h. All treatments were carried out in quadriplicates. Cells were then stained with […] Hoechst 33342 for 20 min, fixed with 4% paraformaldehyde, and imaged using a Zeiss fluorescent microscope (Axiovert 200M) equipped with the Zeiss Acroplan x20 objective. Nuclear morphology was evaluated using an excitation wavelength of 350±10 nm and a longpass filter of 400 nm for emission. All images were processed and analyzed using the MetaMorph software (Universal Imaging Corp., West Chester, Pa.). Uniformly stained nuclei were scored as healthy, viable neurons, while condensed or fragmented nuclei were scored as apoptotic.

| Molecule | intracellular concentration relative to extracellular concentration (Caco-2) | antimycin-induced increase in H2O2 production ([1]; antimycin 1 μM, peptide 1.0 μM) | amount of H2O2 production ([1]; basal, 10 μM) | oxidative damage caused by tBHP [2] | apoptosis (annexin V) [3] | mitochondrial potential (TMRM) [3] | viability [3] | penetration of intact mouse islets (DBA/2 islet cells) | number of apoptotic cells (N2A cells) | nuclear changes (fragmentation and condensation) (N2A cells; 1 nM SS-31) | motor performance (rotarod) [4] | reduction in infarct volume ([5]; 20 min ischemia) [%] | reduction in infarct volume ([5]; 30 min ischemia) [%] | hemispheric swelling ([5]; both 30 and 20 min ischemic paradigms) | number of apoptotic cells (SH-SY5Y cells; 25 μM tBHP, 24 h) | apoptosis induced by a low dose of t-BHP (SH-SY5Y cells; 0.025 mM t-BHP, 1 nM SS-31, 24 h) | percent of apoptotic cells (SH-SY5Y cells; 24 h, t-BHP 0.05 mM) |
| --- | --- | --- | --- | --- | --- | --- | --- | --- | --- | --- | --- | --- | --- | --- | --- | --- | --- |
| 2′,6′-Dmt-Arg-Phe-Lys-NH2 [SS-02] | approximately 50 times | completely blocked | significantly reduced | – | – | – | – | – | – | – | – | – | – | – | – | – | – |
| Cc1cc(O)cc(C)c1C[C@H](NC(=O)[C@H](N)CCCNC(=N)N)C(=O)N[C@@H](CCCCN)C(=O)N[C@@H](Cc1ccccc1)C(N)=O [SS-31, D-Arg-2′6′-Dmt-Lys-Phe-NH2] (H-[dR][Dmt]KF-NH2; N-terminus assumed) | – | – | – | reduces oxidative damage | reduces apoptosis | improves mitochondrial potential | increases viability | readily penetrates | dose-dependently reduced | abolished | significantly improved | 30 | 24 | significantly attenuated | dose-dependently reduced | prevents apoptosis | dose-dependently reduced |
